Assay results from publication PMC3538687, “Detection of Cyclic Diguanylate G-Octaplex Assembly and Interaction with Proteins” (PLoS ONE, 2013).

Tests used:
[1] = biological target: T1, HIV-1 reverse transcriptase (HIV RT) (HIV-1 M:B_HXB2R, UniProt P04585); test: DRaCALA direct binding, protein titration; settings: labelled compound (32P), 500 nM; K+ buffer pH 7.9, room temperature; concentration given as cdiGMP monomers; octaplex only, cdiGMP M/D does not bind; primer-template site
T1 construct: gene gag-pol; purchased from Worthington; mature RT cut from Gag-Pol polyprotein; with p51 RT

[2] = biological target: T1, HIV-1 reverse transcriptase (HIV RT); test: primer extension, […] min; format: biochemical; settings: 80 mM KCl, 6 mM MgCl2, 100 µM dNTPs, pH 8; G8 prepared in K+; concentration given as cdiGMP monomers; octaplex only, M/D shows no inhibition

cdiGMP G8
Kd [1]: 0.7 ± 0.1 µM
IC50 [2]: 28 ± 7 µM
